Columns and labels:
[1] = target: Protein farnesyltransferase (Bos taurus, UniProt P29702+P49355); assay: Inhibition of bovine farnesyltransferase; type: protein-complex assay
[2] = target: T1, Protein farnesyltransferase (Mus musculus) (UniProt Q61239+Q8K2I1); assay: Percent inhibition of H-Ras transformed NIH-3T3-cell proliferation at 100 nM; type: functional, cell-based; settings: NIH3T3
[3] = target: Geranylgeranyl transferase type I (Bos taurus, UniProt P29702+Q5EAD5); assay: Inhibition of bovine Geranylgeranyltransferase; type: protein-complex assay
[4] = target: Protein farnesyltransferase (Mus musculus, UniProt Q61239+Q8K2I1); assay: (§1) Inhibition of H-Ras transformed NIH-3T3-cell proliferation; type: functional, cell-based; settings: nih3t3
[5] = target: T1, Protein farnesyltransferase (Mus musculus); assay: as §1; type: functional; settings: concentration not given here

| Compound | IC50 [1] | inhibition [2] | IC50 [3] | EC50 [4] | inhibition [5] |
| --- | --- | --- | --- | --- | --- |
| N#Cc1ccc(Cn2cncc2COCc2ccc(C#N)cc2-c2ccc3ccccc3c2)cc1 | 0.92 nM | 53% | 3400 nM |  |  |
| N#Cc1ccc(COCc2cncn2Cc2ccc(C#N)nc2)c(-c2ccc3c(c2)OCO3)c1 | 3 nM |  | > 10000 nM |  |  |
| N#Cc1ccc(COCc2cncn2Cc2ccc(C#N)nc2)c(-c2cccc(Cl)c2)c1 | 3 nM | 43% | > 10000 nM |  |  |
| N#Cc1ccc(COCc2cncn2Cc2ccc(C#N)cc2-c2cccc(Cl)c2)c(-c2cccc(Cl)c2)c1 | 10 nM | 0% | 87 nM |  |  |
| N#Cc1ccc(Cn2cncc2COCc2ccc(C#N)cc2-c2ccc(Cl)c(Cl)c2)cc1 | 0.37 nM | 10% | 730 nM |  |  |
| N#Cc1ccc(Cn2cncc2COCc2ccc(C#N)cc2-c2cccc(OC(F)(F)F)c2)cc1 | 0.49 nM | 54% | 990 nM |  |  |
| CC(C)(C)c1ccc(-c2cc(C#N)ccc2COCc2cncn2Cc2ccc(C#N)cc2)cc1 | 0.44 nM | 49% | 870 nM |  |  |
| N#Cc1ccc(Cn2cncc2COCc2ccc(C#N)cc2-c2ccc3c(c2)OCO3)nc1 | 4.7 nM |  | 5500 nM |  |  |
| N#Cc1ccc(COCc2cncn2Cc2ccc(C#N)cc2-c2cccc3ccccc23)c(-c2ccc3c(c2)OCO3)c1 | 6.8 nM | 0% | 1400 nM |  |  |
| COc1cccc(-c2cc(C#N)ccc2COCc2cncn2Cc2ccc(C#N)nc2)c1 | 1.5 nM | 35% | > 10000 nM |  |  |
| Cc1ccc(-c2cc(C#N)ccc2COCc2cncn2Cc2ccc(C#N)cc2)cc1C | 0.6 nM | 53% | > 10000 nM |  |  |
| Cn1cncc1[C@@](N)(c1ccc(Cl)cc1)c1ccc2c(c1)c(-c1cccc(Cl)c1)cc(=O)n2C [TIPIFARNIB] |  |  | 1100 nM |  |  |
| CCOc1cccc(-c2cc(C#N)ccc2COCc2cncn2Cc2ccc(C#N)nc2)c1 | 0.58 nM |  | > 10000 nM |  |  |
| CC(=O)Nc1cccc(-c2cc(C#N)ccc2COCc2cncn2Cc2ccc(C#N)cc2)c1 | 13 nM | 92% |  |  |  |
| N#Cc1ccc(COCc2cncn2Cc2ccc(Cl)cc2)c(-c2ccc3c(c2)OCO3)c1 | 8.3 nM | 11% | > 10000 nM |  |  |
| N#Cc1ccc(Cn2cncc2COCc2ccc(C#N)cc2-c2ccc(OC(F)(F)F)cc2)cc1 | 0.65 nM |  | 1300 nM | 52 nM |  |
| CCOc1ccc(-c2cc(C#N)ccc2COCc2cncn2Cc2ccc(C#N)cc2)cc1 | 1.2 nM | 52% | 2300 nM |  |  |
| COc1cccc(-c2cc(C#N)ccc2COCc2cncn2Cc2ccc(Cl)cc2)c1 | 2.2 nM | 0% | > 10000 nM |  |  |
| N#Cc1ccc(Cn2cncc2COCc2ccc(C#N)c(-c3cccc4ccccc34)c2)cc1 | 4.8 nM | 5% | 1300 nM |  |  |
| CC(=O)c1ccc(-c2cc(C#N)ccc2COCc2cncn2Cc2ccc(C#N)cc2)cc1 | 1.3 nM |  | > 10000 nM |  |  |
| N#Cc1ccc(COCc2cncn2Cc2ccc(C#N)cc2-c2cccc3ccccc23)cc1 | 0.96 nM |  | 2100 nM |  |  |
| COc1ccc(-c2cc(C#N)ccc2COCc2cncn2Cc2ccc(C#N)cc2)cn1 | 7.6 nM | 25% | > 10000 nM |  |  |

Second part, the compound after the results:

| IC50 [1] | inhibition [2] | IC50 [3] | EC50 [4] | inhibition [5] | Compound |
| --- | --- | --- | --- | --- | --- |
| 4 nM | 0% | 1800 nM |  |  | N#Cc1ccc(Cn2cncc2COc2ccc(Cl)cc2-c2cccc(Cl)c2)cc1 |
| 4.3 nM |  | 8600 nM |  |  | N#Cc1ccc(Cn2cncc2COCc2ccc(C#N)cc2-c2ccc(C(F)(F)F)cc2)cc1 |
| > 1000 nM |  |  |  |  | CC1=C(Br)C=C(C#N)C(=O)C1Cn1cncc1COCc1ccc(C#N)cc1-c1ccc2c(c1)OCO2 (stereo unspecified) |
| 0.81 nM | 54% |  |  |  | N#Cc1ccc(Cn2cncc2COCc2ccc(C#N)cc2-c2cccc3c2OCO3)cc1 |
| 0.37 nM |  | 6800 nM | 7.7 nM |  | N#Cc1ccc(Cn2cncc2COCc2ccc(C#N)cc2-c2cccc(Cl)c2)cc1 |
| 0.62 nM |  | 8200 nM |  | 30% | N#Cc1ccc(Cn2cncc2COCc2ccc(Cl)cc2-c2cccc(Cl)c2)cc1 |
| 0.32 nM | 49% | 565 nM |  |  | N#Cc1ccc(OCc2cncn2Cc2ccc(C#N)c(-c3cccc4ccccc34)c2)cc1 |
| 0.38 nM |  | 240 nM |  |  | N#Cc1ccc(Cn2cncc2COc2ccc(C#N)c(-c3cccc4ccccc34)c2)cc1 |
| 1.4 nM |  | > 10000 nM |  |  | CCOc1cccc(-c2cc(C#N)ccc2COCc2cncn2Cc2ccc(Cl)cc2)c1 |
| 4.3 nM | 26% | 810 nM |  |  | N#Cc1ccc(Cn2cncc2COCc2cnc(C#N)cc2-c2cccc(Cl)c2)cc1 |
| 96 nM |  |  |  |  | CS(=O)(=O)c1ccc(Cn2cncc2COCc2ccc(C#N)cc2-c2cccc(Cl)c2)cc1 |
| 0.9 nM |  | 420 nM |  |  | N#Cc1ccc(OCc2cncn2Cc2ccc(C#N)c(-c3cccc4ccccc34)c2)nc1 |
| 4.4 nM | 49% | > 10000 nM |  |  | COc1cccc(-c2cc(C#N)ccc2COCc2cncn2Cc2ccc(C#N)cn2)c1 |
| 1.3 nM | 43% | 2300 nM |  |  | N#Cc1ccc(Cn2cncc2COCc2ccc(C#N)cc2-c2cccc3ccccc23)cc1 |
| 0.65 nM | 5% | 220 nM |  |  | N#Cc1ccc(Cn2cncc2CNCc2ccc(C#N)c(-c3cccc4ccccc34)c2)cc1 |
| 1.7 nM |  | 2200 nM |  |  | N#Cc1ccc(Cn2cncc2COCc2ccc(C#N)cc2-c2cccc(Cl)c2)nc1 |

Reference: ChEMBL document CHEMBL1137997, “Synthesis and activity of 1-aryl-1'-imidazolyl methyl ethers as non-thiol farnesyltransferase inhibitors” (Bioorg Med Chem Lett, 2004)
